Laboratory results reported in article PMC12308784, “Organometallic Half-Sandwich Complexes of 1,10-Phenanthroline Derivatives with Improved Solubility, Albumin-Binding, and Nanoformulation Potential Targeting Drug Resistance in Cancer” (Inorganic Chemistry, 2025).

Assay: time-dependent stability in PBS’ by UV–vis and 1H NMR
Assay type: physicochemical
Settings: pH 7.4, 100 mM chloride
Experimental: As a first step, time-dependent stability measurements were conducted by UV–visible (UV–vis) for all the metal complexes (Figure S13), focusing on their stability in a modified phosphate buffer saline (PBS’) medium to mimic conditions relevant to intravenous applications regarding the pH (7.4) and the chloride ion concentration (100 mM). […] Unfortunately, determining the equilibrium constants for direct complex formation was not possible due to the poor solubility of the ligands in water. […] The robust stability of the analogous IrCp* complexes was also reported.
Figure S14. Time-dependent UV -Vis spectra of metal complexes (a) cRuCymBP = 69 µM; (b) cRhCp*BP =
66 µM; (c) cRuCymDCP = 99 µM; (d) cRhCp*DCP = 85 µM) in PBS' buffer over 24 h (a-d). Spectra were recorded
Figure S15. Time-dependent 1H NMR spectra of metal complex RhCp*BP (66 µM) at pH 7.40 over 5 days.
{10% (v/v) D2O / 90% (v/v) H2O; PBS’; t = 25 °C} […]

[Rh(III)(η^5-C5Me5)(bathophenanthroline)Cl]Cl [RhCp*BP]
stability in PBS’ over 24 h: no changes
